Entries after “also recorded” stand apart in the source; their conditions may differ. Like-named read-outs stand apart in the source and are kept apart here.
Key:
[1] = delivered systemically; cited from earlier work
ependymoblastoma = conditions: intratumoral injection(s), up to ten; suspended in 0.4% aqueous methylcellulose in most suitable formulation; cited from earlier work
[2] = cited from earlier work
tumor cells = assay: Tumoricidal dose 50% (TD50) comparison; conditions: 66.7 mg/ml BCNU in absolute ethanol
From the text: Operationally, where cytotoxic, the antineoplastic agent is preferably dissolved in the organic solvent to a concentration such that when a therapeutically effective volume of the antineoplastic solution of the invention is delivered into a neoplastic mass, there results a dose of the agent solute in said mass of at least two logs greater than its tumoricidal dose 50% (TD50), that is, the concentration of agent in said mass that kills 50% of the tumor cells. This ensures that a supralethal concentration of the agent is delivered throughout at least a substantial volume of the tumor mass when the resulting antineoplastic solution is injected directly into the substance of the tumor. As the organic vehicle permeates the tumor mass it transports a therapeutically effective, neoplastically lethal concentration of the cytotoxic agent solute therewith. In this way high levels of the cytotoxic antineoplastic agent can be delivered discretely and with relative safety to the tumor mass. In another sense the water miscible organic vehicle component of the solution can be considered to increase the solubility of the agent within the tumor mass, thereby allowing therapeutically effective toxic levels of the antineoplastic agent to invest the tumor. […]

T9 gliosarcoma [3] = conditions: cited from earlier work
[4] = rat, in vivo; cited from earlier work
[5] = cited from earlier work; remark: listed apart in the source
[6] = Stability of BCNU in ethanol, organic vehicles and aqueous solution; format: physicochemical; conditions: ethanol vehicle of the exemplary solution
Lethal dose of BCNU = format: in vivo; conditions: intraperitoneal BCNU in rats
Protocol: All intratumoral injections used this 66.7 mg/ml formulation directly. This concentration is about three to four logs greater than the tumoricidal dose 50%. […] This cannot be extrapolated to man, however, because of differences in cross-species toxicity.

T9 gliosarcoma [7] = assay: Survival of rats bearing intracerebral T9 gliosarcoma after intratumoral BCNU solution; format: in vivo, rat (male CDF, Fischer 344); conditions: for % ILS (percent increase in life span): vs control
[8] = cited from earlier work; remark: listed apart in the source
[9] = Operative mortality following intratumoral injection; format: in vivo, rat (male CDF, Fischer 344); conditions: following intratumoral BCNU solution injection; 4/72
Protocol: Rats were anesthetized with ether and pentobarbital sodium (25-30 mg/kg) and placed into the stereotactic frame. The clips and bone wax were carefully removed. The BCNU solution was delivered directly into the tumor through a
Hamilton microsyringe set to the same coordinates and using the same technique as used in the initial tumor implantation. As before, the operative field was cleaned with povidone-iodine solution and the scalp was closed with clips.
The following paradigm was used to assess therapeutic efficacy of the intra-tumorally delivered BCNU antineoplastic solution. All animals received tumor implantation on day zero (0). Controls received no treatment, vehicle controls received a single intratumoral injection of absolute ethanol on day 7. One experimental group received a single injection of intratumoral BCN dissolved in absolute ethanol at a dose of 5 mg/kg body weight on day 7.

[10] = Group 4: IT BCNU 5 mg/kg day 7 + IP BCNU 5 mg/kg day 12, n=14

COc1cccc2c1C(=O)c1c(O)c3c(c(O)c1C2=O)C[C@@](O)(C(=O)CO)C[C@@H]3O[C@H]1C[C@H](N)[C@H](O)[C@H](C)O1 [adriamycin]
organ specific toxicity [1]: cardiotoxicity

O=NN(CCCl)C(=O)NC1CCCCC1 [CCNU, 1-(2-chloroethyl)-3-cyclohexyl-1-nitrosourea]
increase in life span (ependymoblastoma): only modest increases in life span
water solubility [2]: water insoluble

O=NN(CCCl)C(=O)NCCCl [BCNU, 1,3-bis(2-chloroethyl)-1-nitrosourea]
concentration of the formulation above the tumoricidal dose 50% (tumor cells): about three to four
ILS (T9 gliosarcoma [3]; BCNU 5 mg/kg, delivered intra-arterially): 57%
improvement in life span (T9 gliosarcoma [3]; BCNU 5 mg/kg, delivered systemically): no improvement in life span
ILS (T9 gliosarcoma [3]; BCNU 13.3 mg/kg, delivered intravenously or intra-arterially): 180%
cures in animals bearing this tumor, prior to this experiment (T9 gliosarcoma [3]; any mode of delivery previously known): neither BCNU nor any other antineoplastic agent has ever produced cures in animals bearing this tumor; also recorded: neither BCNU nor any other single antineoplastic agent has ever been known to produce a single cure in this tumor model
lethal dose 10% [4]: 13.3 mg/kg
stability in aqueous solution ([5]; aqueous solution): not very stable in aqueous solution
stability in ethanol ([5]; ethanol): stable in ethanol
stability in organic water miscible solvent vehicles ([5]; organic water miscible solvent vehicles, compared with aqueous solution): far more stable in the organic water miscible solvent vehicles
solubility in ethanol [6]: soluble to highly cytotoxic levels in ethanol
stability and bioavailability in ethanol [6]: remains stable and bioavailable therein
dose of 5 mg/kg as percentage of the LD10 (Lethal dose of BCNU): ~40%
% ILS (percent increase in life span) (T9 gliosarcoma [7]; Group 3: single IT BCNU 5 mg/kg in absolute ethanol, day 7, n=42): 322%
% Cures (T9 gliosarcoma [7]; Group 3: single IT BCNU 5 mg/kg, day 7, n=42): 43%
MDS (median day of survival following tumor implantation) (T9 gliosarcoma [7]; Group 3: single intratumoral (IT) injection of BCNU in absolute ethanol, 5 mg/kg, day 7, n=42): 76 days
% Cures (T9 gliosarcoma [7]; [10]): 36%
% ILS (percent increase in life span) (T9 gliosarcoma [7]; [10]): 472%
MDS (median day of survival following tumor implantation) (T9 gliosarcoma [7]; Group 4: IT BCNU in absolute ethanol 5 mg/kg day 7 + IP BCNU 5 mg/kg in 7.5% aqueous ethanol day 12, n=14): 103 days
animals living a normal lifespan (T9 gliosarcoma [7]; Groups 3 + 4, 600-700 days): nineteen
animals sacrificed healthy, no observable viable T9 gliosarcoma (T9 gliosarcoma [7]; Groups 3 + 4, days 121, 136, 307, 384): four
% Cures (T9 gliosarcoma [7]; Groups 3 + 4 combined, n=56): 41%
MDS (median day of survival following tumor implantation) (T9 gliosarcoma [7]; Groups 3 + 4 combined, n=56): 96 days
% ILS (percent increase in life span) (T9 gliosarcoma [7]; Groups 3 + 4 combined, n=56): 433%
therapeutic benefit of adding intraperitoneal BCNU to intratumoral BCNU solution (T9 gliosarcoma [7]; IT + IP vs IT only): did not statistically enhance the therapeutic benefit
animals which live a normal life span (T9 gliosarcoma [7]; intratumoral BCNU solution treated group, 600-700 days): 41%
animals that die, phase one (T9 gliosarcoma [7]; intratumoral BCNU solution treated group, days 18-24): 23%
animals that die, second phase (T9 gliosarcoma [7]; intratumoral BCNU solution treated group, days 25 to 166): 30%
animals that die, third phase (T9 gliosarcoma [7]; intratumoral BCNU solution treated group, days 251-325): 5%
water solubility [2]: inherently low water solubility
half life in serum [8]: about 15 minutes
Operative mortality [9]: 5.5%

bleomycin
organ specific toxicity [1]: lung toxicity

C[C@H]1CC[C@H](NC(=O)N(CCCl)N=O)CC1 [Me-CCNU, 1-(2-chloroethyl)-3-(trans-4-methylcyclohexyl)-1-nitrosourea]
increase in life span (ependymoblastoma): only modest increases in life span
water solubility [2]: water insoluble

Reference: patent publication US5162115A, “Antineoplastic solution and method for treating neoplasms” (priority 1991, dated 1992)
